Drawing on ChEMBL document CHEMBL2331467, “Fungal transformation of cedryl acetate and α-glucosidase inhibition assay, quantum mechanical calculations and molecular docking studies of its metabolites” (Eur J Med Chem, 2013), this text covers IC50 for five compounds.

Structures are written as SMILES.

In the experiment the target is Alpha-glucosidase MAL62 (Saccharomyces cerevisiae, UniProt P07265). As to the kind of experiment: Inhibition of yeast alpha-glucosidase using para-nitrophenyl alpha-D-glucopyranoside as substrate by spectrophotometric analysis.
Alpha-glucosidase MAL62, sequence (P07265 whole entry): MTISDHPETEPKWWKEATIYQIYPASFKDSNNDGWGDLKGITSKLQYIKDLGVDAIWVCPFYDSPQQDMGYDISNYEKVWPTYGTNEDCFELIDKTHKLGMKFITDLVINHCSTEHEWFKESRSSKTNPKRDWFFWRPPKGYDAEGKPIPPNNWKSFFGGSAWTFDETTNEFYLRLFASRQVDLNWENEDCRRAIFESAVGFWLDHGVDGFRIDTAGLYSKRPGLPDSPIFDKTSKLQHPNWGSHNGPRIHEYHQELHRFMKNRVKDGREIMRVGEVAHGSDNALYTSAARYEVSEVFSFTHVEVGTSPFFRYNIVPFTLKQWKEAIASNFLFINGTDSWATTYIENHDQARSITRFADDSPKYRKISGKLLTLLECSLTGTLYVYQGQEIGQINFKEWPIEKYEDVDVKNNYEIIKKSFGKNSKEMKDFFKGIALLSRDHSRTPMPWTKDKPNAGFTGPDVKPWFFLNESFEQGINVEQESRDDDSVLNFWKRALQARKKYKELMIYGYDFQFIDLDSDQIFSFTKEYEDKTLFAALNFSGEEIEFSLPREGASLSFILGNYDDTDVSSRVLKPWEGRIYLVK
In general, IC50 refers to the concentration that inhibits the measured activity by half. As to `CC(=O)O[C@]1(C)CC[C@@]23C[C@H]1C(C)(C)[C@@H]2CC[C@H]3C` [CEDRYL ACETATE], the IC50 was found to be 94 µM. This lies in the double-digit micromolar range. Turning to `OC[C@H]1NC[C@H](O)[C@@H](O)[C@@H]1O` [DUVOGLUSTAT], the IC50 stood at 426 µM. Take `C[C@@H]1CC[C@H]2C(C)(C)[C@H]3C[C@@]12CC[C@@]3(C)O` [CEDROL]: the concentration for half-maximal inhibition (IC50) was 130 µM. This IC50 lies about 3.3-fold lower than the previous one. To `CC(=O)O[C@]1(C)C[C@H](O)[C@@]23C[C@H]1C(C)(C)[C@@H]2C[C@H](O)[C@H]3C` belongs “Not Active”; to `CC(=O)O[C@]1(C)C[C@H](O)[C@@]23C[C@H]1C(C)(C)[C@@H]2CC[C@]3(C)O`, 690 µM.
